Experimental data as given in ChEMBL document CHEMBL4673381, “Novel Hexahydro-1H-Pyrazino[1,2-a]pyrazine Compounds for Treating Autoimmune Diseases” (ACS Med Chem Lett, 2021).

Target: T1, Toll-like receptor 9 (Homo sapiens, UniProt Q9NR96)
T1 sequence (Q9NR96 whole entry): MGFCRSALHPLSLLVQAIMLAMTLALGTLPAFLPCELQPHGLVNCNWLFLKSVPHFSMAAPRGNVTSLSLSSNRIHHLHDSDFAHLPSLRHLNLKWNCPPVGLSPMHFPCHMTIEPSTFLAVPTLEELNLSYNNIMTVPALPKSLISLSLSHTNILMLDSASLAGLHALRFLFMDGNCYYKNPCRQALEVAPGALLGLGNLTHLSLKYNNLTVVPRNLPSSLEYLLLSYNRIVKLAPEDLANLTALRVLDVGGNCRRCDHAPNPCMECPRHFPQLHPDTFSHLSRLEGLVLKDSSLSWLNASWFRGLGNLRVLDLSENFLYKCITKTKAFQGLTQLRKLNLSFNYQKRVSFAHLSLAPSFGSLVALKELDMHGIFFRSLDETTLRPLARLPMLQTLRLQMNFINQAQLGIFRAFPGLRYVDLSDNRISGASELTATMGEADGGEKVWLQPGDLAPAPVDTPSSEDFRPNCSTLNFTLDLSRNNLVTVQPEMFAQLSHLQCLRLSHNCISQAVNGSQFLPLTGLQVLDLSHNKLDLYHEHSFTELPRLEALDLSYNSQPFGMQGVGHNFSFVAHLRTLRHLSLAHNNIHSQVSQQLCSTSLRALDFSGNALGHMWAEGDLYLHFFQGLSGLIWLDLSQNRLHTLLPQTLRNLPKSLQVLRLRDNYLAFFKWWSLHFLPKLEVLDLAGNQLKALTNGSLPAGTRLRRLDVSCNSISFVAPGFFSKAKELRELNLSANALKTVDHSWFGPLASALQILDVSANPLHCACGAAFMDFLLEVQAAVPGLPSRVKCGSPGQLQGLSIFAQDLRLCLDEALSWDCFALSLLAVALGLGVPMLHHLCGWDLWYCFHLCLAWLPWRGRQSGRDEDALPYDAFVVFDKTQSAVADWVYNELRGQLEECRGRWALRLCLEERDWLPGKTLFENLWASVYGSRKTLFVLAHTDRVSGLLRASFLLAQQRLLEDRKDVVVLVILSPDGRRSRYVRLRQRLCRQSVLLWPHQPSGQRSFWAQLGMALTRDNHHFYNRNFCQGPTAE
Assay: Inhibition of human TLR9 expressed in HEK-Blue cells assessed as inhibition of ODN2006-induced NF-kappaB and AP-1 activation measured after 20 hrs by quanti-blue based SEAP reporter gene assay
Type: cell-based, HEK-Blue hTLR9

| IC50 [nM] | Compound |
| --- | --- |
| 54 | C[C@@H]1CN(c2ccc(C#N)c3ncccc23)C[C@@H]2CN(c3cccc4c3CCNC4)CCN21 |
| 70 | [2H]c1ccc2c(N3CC4CN(c5ncc(N6CCOC[C@H](N)C6)cc5C)CCN4[C@@H](C)C3)ccc(C#N)c2n1 (some centres not stated) |
